Source: patent EP0107907A2, “Improvements in or relating to immunomodulating agents” (ELI LILLY AND COMPANY, priority 1982, dated 1984)

Tested on: murine macrophages
Experiment: In vitro activation of murine macrophages (macrophage-mediated tumor cytotoxicity against P815 cells)
Type: cell-based
Conditions: for Percent Macrophage Cytotoxicity: 48 hours; for immunomodulatory activity: in the in vitro assay
Description: In one procedure, the ability of the compounds to activate murine macrophages in vitro was determined. Peritoneal macrophages were exposed to a compound of formula 1, 2, or 3 simultaneously with the addition of target cells. Tumor cytotoxicity of these treated macrophages was determined 48 hours later by trypan blue enumeration. The percentage of growth inhibition of P815 cells due to composition-mediated macrophage activation was calculated by comparison to that of P815 cells grown in the.presence of macrophages exposed to buffer.

| Compound | Percent Macrophage Cytotoxicity (Fosfomycin 10 µg/ml, Experiment 1) [%] | Percent Macrophage Cytotoxicity (Fosfomycin 10 µg/ml, Experiment 2) [%] | Percent Macrophage Cytotoxicity (Fosfomycin 100 µg/ml, Experiment 1) [%] | Percent Macrophage Cytotoxicity (Fosfomycin 100 µg/ml, Experiment 2) [%] | immunomodulatory activity |
| --- | --- | --- | --- | --- | --- |
| C[C@@H]1O[C@@H]1P(=O)(O)O [Fosfomycin, reference compound] | 49 | 11 | 47 | 30 |  |
| C[C@H](N)C(=O)N[C@@H](C)P(=O)(O)O [alaphosphin, L-alanyl-L-1-aminb-- ethylphosphonic acid, reference compound] |  |  |  |  | did not exhibit immunomodulatory activity |
| O=CN(O)CCCP(=O)(O)O [fosmidomycin, reference compound] |  |  |  |  | did not exhibit immunomodulatory activity |
